Data published in PubChem BioAssay (NCI).
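Method: 48-hour compound exposure of cells in 96-well plates, five concentrations, linear interpolation of endpoints. TGI is the concentration that stops growth completely.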

Experiments:
Assay in all cases: DTP human tumour cell line panel, 48 h
HCC-2998 colon = test system: HCC-2998 colon
ACHN renal = test system: ACHN renal
HT29 colon = test system: HT29 colon
CCRF-CEM leukemia = test system: CCRF-CEM leukemia
DU-145 prostate = test system: DU-145 prostate
SK-MEL-2 melanoma = test system: SK-MEL-2 melanoma
MDA-MB-231 breast = test system: MDA-MB-231 breast
HS 578T breast = test system: HS 578T breast
RPMI-8226 leukemia = test system: RPMI-8226 leukemia
NCI-H460 lung = test system: NCI-H460 lung
OVCAR-8 ovarian = test system: OVCAR-8 ovarian
BT-549 breast = test system: BT-549 breast
MDA-MB-435 = test system: MDA-MB-435
UO-31 renal = test system: UO-31 renal
M14 melanoma = test system: M14 melanoma
SN12C renal = test system: SN12C renal
786-0 renal = test system: 786-0 renal
HCT-15 colon = test system: HCT-15 colon
HCT-116 colon = test system: HCT-116 colon
U251 CNS = test system: U251 CNS
SK-MEL-5 melanoma = test system: SK-MEL-5 melanoma
COLO 205 colon = test system: COLO 205 colon
A498 renal = test system: A498 renal
SK-MEL-28 melanoma = test system: SK-MEL-28 melanoma
UACC-62 melanoma = test system: UACC-62 melanoma
OVCAR-3 ovarian = test system: OVCAR-3 ovarian
K-562 leukemia = test system: K-562 leukemia
MALME-3M melanoma = test system: MALME-3M melanoma
OVCAR-5 ovarian = test system: OVCAR-5 ovarian
SNB-19 CNS = test system: SNB-19 CNS
HOP-62 NSCLC = test system: HOP-62 NSCLC
SF-295 CNS = test system: SF-295 CNS
SNB-75 CNS = test system: SNB-75 CNS
SK-OV-3 ovarian = test system: SK-OV-3 ovarian
MDA-N = test system: MDA-N
CAKI-1 renal = test system: CAKI-1 renal
EKVX NSCLC = test system: EKVX NSCLC
NCI-H522 lung = test system: NCI-H522 lung
NCI-H23 lung = test system: NCI-H23 lung
HL-60(TB) leukemia = test system: HL-60(TB) leukemia
PC-3 prostate = test system: PC-3 prostate
NCI-H226 lung = test system: NCI-H226 lung
KM12 colon = test system: KM12 colon
LOX IMVI melanoma = test system: LOX IMVI melanoma
SW-620 colon = test system: SW-620 colon
IGROV1 ovarian = test system: IGROV1 ovarian
MCF7 breast = test system: MCF7 breast
SR leukemia = test system: SR leukemia
SF-268 CNS = test system: SF-268 CNS
A549 NSCLC = test system: A549 NSCLC
T-47D breast = test system: T-47D breast
MOLT-4 leukemia = test system: MOLT-4 leukemia
OVCAR-4 ovarian = test system: OVCAR-4 ovarian
RXF 393 renal = test system: RXF 393 renal
NCI/ADR-RES ovarian = test system: NCI/ADR-RES ovarian
UACC-257 melanoma = test system: UACC-257 melanoma
SF-539 CNS = test system: SF-539 CNS
TK-10 renal = test system: TK-10 renal
HOP-92 NSCLC = test system: HOP-92 NSCLC

Work on Nc1ccc(I)cn1 yielded a TGI (HCC-2998 colon) greater than 100 µM, a TGI (ACHN renal) greater than 100 µM and a TGI (HT29 colon) greater than 100 µM. For the same molecule, the TGI (CCRF-CEM leukemia) was greater than 100 µM, the TGI (DU-145 prostate) was greater than 100 µM and the TGI (SK-MEL-2 melanoma) was greater than 100 µM. For the same molecule, the TGI (MDA-MB-231 breast) was greater than 100 µM, the TGI (HS 578T breast) was greater than 100 µM and the TGI (RPMI-8226 leukemia) was greater than 100 µM. It also gave a TGI (NCI-H460 lung) greater than 100 µM, a TGI (OVCAR-8 ovarian) greater than 100 µM and a TGI (BT-549 breast) greater than 100 µM. For the same molecule, the TGI (MDA-MB-435) was greater than 100 µM, the TGI (UO-31 renal) was greater than 100 µM and the TGI (M14 melanoma) was greater than 100 µM. For the same molecule, the TGI (SN12C renal) was greater than 100 µM, the TGI (786-0 renal) was greater than 100 µM and the TGI (HCT-15 colon) was greater than 100 µM. It also gave a TGI (HCT-116 colon) greater than 100 µM, a TGI (U251 CNS) greater than 100 µM and a TGI (SK-MEL-5 melanoma) greater than 100 µM. For the same molecule, the TGI (COLO 205 colon) was greater than 100 µM, the TGI (A498 renal) was greater than 100 µM and the TGI (SK-MEL-28 melanoma) was greater than 100 µM. For the same molecule, the TGI (UACC-62 melanoma) was greater than 100 µM, the TGI (OVCAR-3 ovarian) was greater than 100 µM and the TGI (K-562 leukemia) was greater than 100 µM. The TGI (MALME-3M melanoma) was greater than 100 µM, the TGI (OVCAR-5 ovarian) was greater than 100 µM and the TGI (SNB-19 CNS) was greater than 100 µM. For the same molecule, the TGI (HOP-62 NSCLC) was greater than 100 µM, the TGI (SF-295 CNS) was greater than 100 µM and the TGI (SNB-75 CNS) was greater than 100 µM. It also gave a TGI (SK-OV-3 ovarian) greater than 100 µM, a TGI (MDA-N) greater than 100 µM and a TGI (CAKI-1 renal) greater than 100 µM. The TGI (EKVX NSCLC) was greater than 100 µM, the TGI (NCI-H522 lung) was greater than 100 µM and the TGI (NCI-H23 lung) was greater than 100 µM. The TGI (HL-60(TB) leukemia) was greater than 100 µM, the TGI (PC-3 prostate) was greater than 100 µM and the TGI (NCI-H226 lung) was greater than 100 µM. The TGI (KM12 colon) was greater than 100 µM, the TGI (LOX IMVI melanoma) was greater than 100 µM and the TGI (SW-620 colon) was greater than 100 µM. It also gave a TGI (IGROV1 ovarian) greater than 100 µM, a TGI (MCF7 breast) greater than 100 µM and a TGI (SR leukemia) greater than 100 µM. The TGI (SF-268 CNS) was greater than 100 µM, the TGI (A549 NSCLC) was greater than 100 µM and the TGI (T-47D breast) was greater than 100 µM. It also gave a TGI (MOLT-4 leukemia) greater than 100 µM, a TGI (OVCAR-4 ovarian) greater than 100 µM and a TGI (RXF 393 renal) greater than 100 µM. It also gave a TGI (NCI/ADR-RES ovarian) greater than 100 µM.

Work on CCOC(=O)c1ccc(NC(=O)O/N=C(/Cl)CC)cc1 yielded a TGI (HCC-2998 colon) of 32.6 µM, a TGI (ACHN renal) of 22.9 µM and a TGI (HT29 colon) of 44.5 µM. The TGI (CCRF-CEM leukemia) was 4.54 µM, the TGI (DU-145 prostate) was 33.5 µM and the TGI (SK-MEL-2 melanoma) was 31.9 µM. It also gave a TGI (MDA-MB-231 breast) of 42.5 µM, a TGI (HS 578T breast) of 67.5 µM and a TGI (NCI-H460 lung) of 40.9 µM. The TGI (OVCAR-8 ovarian) was 30.4 µM, the TGI (BT-549 breast) was 59.5 µM and the TGI (MDA-MB-435) was 34.6 µM. For the same molecule, the TGI (UO-31 renal) was 31.4 µM, the TGI (M14 melanoma) was 25.6 µM and the TGI (SN12C renal) was 39.3 µM. For the same molecule, the TGI (786-0 renal) was 13 µM, the TGI (HCT-15 colon) was 28.9 µM and the TGI (HCT-116 colon) was 26.1 µM. The TGI (U251 CNS) was 34.3 µM, the TGI (SK-MEL-5 melanoma) was 29.5 µM and the TGI (COLO 205 colon) was 5.5 µM. The TGI (A498 renal) was 32.4 µM, the TGI (SK-MEL-28 melanoma) was 30.6 µM and the TGI (UACC-62 melanoma) was 45.4 µM. The TGI (OVCAR-3 ovarian) was 3.5 µM, the TGI (K-562 leukemia) was 3.6 µM and the TGI (MALME-3M melanoma) was 9.14 µM. It also gave a TGI (OVCAR-5 ovarian) of 34.3 µM, a TGI (SNB-19 CNS) of 45.5 µM and a TGI (HOP-62 NSCLC) of 38.1 µM. The TGI (SF-295 CNS) was 36.4 µM, the TGI (SNB-75 CNS) was 28.2 µM and the TGI (SK-OV-3 ovarian) was 31.7 µM. It also gave a TGI (MDA-N) of 32.6 µM, a TGI (CAKI-1 renal) of 8.72 µM and a TGI (UACC-257 melanoma) of 29.8 µM. For the same molecule, the TGI (SF-539 CNS) was 33.6 µM, the TGI (EKVX NSCLC) was 32.2 µM and the TGI (NCI-H522 lung) was 6.81 µM. For the same molecule, the TGI (NCI-H23 lung) was 39.9 µM, the TGI (HL-60(TB) leukemia) was 6.47 µM and the TGI (PC-3 prostate) was 33.3 µM. It also gave a TGI (NCI-H226 lung) of 40 µM, a TGI (KM12 colon) of 36.1 µM and a TGI (SW-620 colon) of 3.36 µM. The TGI (IGROV1 ovarian) was 41.3 µM, the TGI (MCF7 breast) was 30.9 µM and the TGI (SR leukemia) was 11.6 µM. For the same molecule, the TGI (SF-268 CNS) was 48 µM, the TGI (A549 NSCLC) was greater than 60.8 µM and the TGI (TK-10 renal) was greater than 34.4 µM. The TGI (T-47D breast) was 19.8 µM, the TGI (MOLT-4 leukemia) was 4.51 µM and the TGI (OVCAR-4 ovarian) was 10.1 µM. It also gave a TGI (RXF 393 renal) of 31.1 µM, a TGI (NCI/ADR-RES ovarian) of 22 µM and a TGI (HOP-92 NSCLC) of 6.77 µM.
